The target of one assay is GST-tagged-Wee1 kinase (Homo sapiens, UniProt P30291). The assay is described as follows: Wee1 time-resolved fluorescence equilibrium binding assay (displacement of Oregon Green-labeled ATP-competitive kinase probe).
Chain of GST-tagged-Wee1 kinase (P30291 whole entry): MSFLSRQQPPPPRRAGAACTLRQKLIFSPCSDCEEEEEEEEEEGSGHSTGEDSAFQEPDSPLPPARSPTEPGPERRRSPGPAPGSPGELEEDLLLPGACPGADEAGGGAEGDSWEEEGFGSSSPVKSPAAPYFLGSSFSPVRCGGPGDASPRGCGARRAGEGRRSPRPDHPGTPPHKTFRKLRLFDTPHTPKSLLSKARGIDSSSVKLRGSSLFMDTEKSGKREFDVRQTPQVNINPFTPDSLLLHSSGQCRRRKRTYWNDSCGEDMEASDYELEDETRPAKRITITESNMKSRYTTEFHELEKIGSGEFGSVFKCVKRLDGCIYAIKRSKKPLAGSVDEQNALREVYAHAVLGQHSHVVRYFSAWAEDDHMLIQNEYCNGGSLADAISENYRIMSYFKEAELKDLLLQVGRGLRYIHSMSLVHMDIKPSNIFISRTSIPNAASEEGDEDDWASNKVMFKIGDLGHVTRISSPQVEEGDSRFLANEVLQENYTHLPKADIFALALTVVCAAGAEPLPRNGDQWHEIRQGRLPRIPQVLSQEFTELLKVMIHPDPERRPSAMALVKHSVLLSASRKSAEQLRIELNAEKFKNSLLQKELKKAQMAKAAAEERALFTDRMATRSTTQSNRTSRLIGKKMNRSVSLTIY
Details: not given
On the procedure:
Wee1 kinase was assayed using a time-resolved fluorescence equilibrium binding assay monitoring displacement of a rapidly reversible Oregon Green-labeled ATP-competitive kinase probe (N-(2-(2-(2-(4-(4-(5-chloro-4-(2-(1-hydroxycyclobutyl)thiazol-5-yl)-1H-pyrrolo[2,3-b]pyridin-2-yl)phenyl)piperazin-1-yl)ethoxy)ethoxy)ethyl)-2′,7′-difluoro-3′,6′-dihydroxy-3-oxo-3H-spiro[isobenzofuran-1,9′-xanthene]-5-carboxamide) by competitive Wee1 inhibitors.
The molecule `CCc1nn(-c2c(Cl)cccc2Cl)c(=O)c2cnc(Nc3ccc4c(c3)CN(C)C4)nc12` [Example 494, 6-(2,6-dichlorophenyl)-8-ethyl-2-[(2-methyl-2,3-dihydro-1H-isoindol-5-yl)amino]pyrimido[4,5-d]pyridazin-5(6H)-one] came in with a Ki of 0.31 nM.
Molecule `CN1CCN(c2ccc(Nc3ncc4c(=O)n(-c5ccccc5Cl)nc(-c5ccoc5)c4n3)cc2)CC1` [Example 94, 6-(2-chlorophenyl)-8-(3-furyl)-2-{[4-(4-methylpiperazin-1-yl)phenyl]amino}pyrimido[4,5-d]pyridazin-5(6H)-one] yielded a Ki of 0.5 nM.
Regarding `Cc1cccc(Cl)c1-n1nc(C)c2nc(Nc3ccc4c(c3)CCNC4)ncc2c1=O` [Example 496, 6-(2-chloro-6-methylphenyl)-8-methyl-2-(1,2,3,4-tetrahydroisoquinolin-6-ylamino)pyrimido[4,5-d]pyridazin-5(6H)-one], the affinity corresponds to a Ki of 0.34 nM.
For `O=c1c2cnc(Nc3ccc(N4CCN(C5COC5)CC4)cc3)nc2c(-c2ccncc2)nn1-c1c(Cl)cccc1Cl` [Example 321, 6-(2,6-dichlorophenyl)-2-({4-[4-(oxetan-3-yl)piperazin-1-yl]phenyl}amino)-8-(pyridin-4-yl)pyrimido[4,5-d]pyridazin-5(6H)-one], the Ki amounted to 0.8 nM.
The molecule `CN1CCN(c2ccc(Nc3ncc4c(=O)n(-c5c(Cl)cccc5Cl)nc(-c5ccccc5)c4n3)cc2)CC1` [Example 46, 6-(2,6-dichlorophenyl)-2-{[4-(4-methylpiperazin-1-yl)phenyl]amino}-8-phenylpyrimido[4,5-d]pyridazin-5(6H)-one] had a Ki of 0.3 nM.
`CN1CCN(c2ccc(Nc3ncc4c(=O)n(-c5ccncc5Cl)nc(-c5ccncc5)c4n3)cc2)CC1` [Example 382, 6-(3-chloropyridin-4-yl)-2-{[4-(4-methylpiperazin-1-yl)phenyl]amino}-8-(pyridin-4-yl)pyrimido[4,5-d]pyridazin-5(6H)-one] returned a Ki of 7.6 nM.
The molecule `Cc1ccccc1-n1nc(-c2ccccc2F)c2nc(Nc3ccc(N4CCN(C)CC4)cc3)ncc2c1=O` [Example 36, 8-(2-fluorophenyl)-6-(2-methylphenyl)-2-{[4-(4-methylpiperazin-1-yl)phenyl]amino}pyrimido[4,5-d]pyridazin-5(6H)-one] came in with a Ki of 3 nM.
Same read-out and setting: to `CN1CCN(c2ccc(Nc3ncc4c(=O)[nH]nc(C5CCCC5)c4n3)cc2)CC1` [Example 14, 8-cyclopentyl-2-{[4-(4-methylpiperazin-1-yl)phenyl]amino}pyrimido[4,5-d]pyridazin-5(6H)-one] belongs 1100 nM; to `CN1Cc2cc(Nc3ncc4c(=O)n(C5CCNCC5)nc(-c5ccccn5)c4n3)ccc2C(C)(C)C1` [Example 304, 6-(piperidin-4-yl)-8-(pyridin-2-yl)-2-[(2,4,4-trimethyl-1,2,3,4-tetrahydroisoquinolin-7-yl)amino]pyrimido[4,5-d]pyridazin-5(6H)-one], 610 nM; to `Cn1cnc(-c2nn(-c3c(Cl)cncc3Cl)c(=O)c3cnc(Nc4ccc5c(c4)CNCC54CC4)nc23)c1` [Example 372, 6-(3,5-dichloropyridin-4-yl)-2-(2′,3′-dihydro-1′H-spiro[cyclopropane-1,4′-isoquinolin]-7′-ylamino)-8-(1-methyl-1H-imidazol-4-yl)pyrimido[4,5-d]pyridazin-5(6H)-one], 3.7 nM.
In the case of `CN1CCN(c2ccc(Nc3ncc4c(=O)n(C5CCC5)nc(-c5ccncc5)c4n3)cc2)CC1` [Example 282, 6-cyclobutyl-2-{[4-(4-methylpiperazin-1-yl)phenyl]amino}-8-(pyridin-4-yl)pyrimido[4,5-d]pyridazin-5(6H)-one], the Ki was determined as 58 nM.
On to `Cc1nn(-c2c(Cl)cccc2Cl)c(=O)c2cnc(Nc3cccc(NCCN4CCOCC4)c3)nc12` [Example 513, 6-(2,6-dichlorophenyl)-8-methyl-2-[(3-{[2-(morpholin-4-yl)ethyl]amino}phenyl)amino]pyrimido[4,5-d]pyridazin-5(6H)-one], for which the affinity corresponds to a Ki of 1.1 nM.
For `CN(C)Cc1ccc(Nc2ncc3c(=O)n(-c4ccccc4Cl)nc(-c4cccs4)c3n2)cc1` [Example 209, 6-(2-chlorophenyl)-2-({4-[(dimethylamino)methyl]phenyl}amino)-8-(thiophen-2-yl)pyrimido[4,5-d]pyridazin-5(6H)-one], the Ki came to 0.8 nM.
Molecule `Cc1nn(-c2c(Cl)cccc2Cl)c(=O)c2cnc(Nc3ccc4c(c3)CCN(C)C4)nc12` [Example 435, 6-(2,6-dichlorophenyl)-8-methyl-2-[(2-methyl-1,2,3,4-tetrahydroisoquinolin-6-yl)amino]pyrimido[4,5-d]pyridazin-5(6H)-one] gave a Ki of 0.46 nM.
Still for that read-out and setting: to `CC1CCCC(C)C1n1nc(-c2ccccn2)c2nc(Nc3ccc(N4CCNCC4)cc3)ncc2c1=O` (stereo not drawn) [Example 333, 6-(2,6-dimethylcyclohexyl)-2-{[4-(piperazin-1-yl)phenyl]amino}-8-(pyridin-2-yl)pyrimido[4,5-d]pyridazin-5(6H)-one] belongs 770 nM; to `Cc1nn(-c2c(Cl)cccc2Cl)c(=O)c2cnc(Nc3ccc4c(c3)CN(C(=O)CO)CC43CC3)nc12` [Example 426, 6-(2,6-dichlorophenyl)-2-{[2′-(hydroxyacetyl)-2′,3′-dihydro-1′H-spiro[cyclopropane-1,4′-isoquinolin]-7′-yl]amino}-8-methylpyrimido[4,5-d]pyridazin-5(6H)-one], 0.11 nM.
`Cc1nn(-c2c(Cl)cccc2Cl)c(=O)c2cnc(Nc3cc4c(cc3F)CNCC4)nc12` [Example 480, 6-(2,6-dichlorophenyl)-2-[(7-fluoro-1,2,3,4-tetrahydroisoquinolin-6-yl)amino]-8-methylpyrimido[4,5-d]pyridazin-5(6H)-one] came in with a Ki of 1.3 nM.
As for `Cc1ccccc1-n1nc(-c2ccco2)c2nc(Nc3ccc(CN(C)C)cc3)ncc2c1=O` [Example 106, 2-({4-[(dimethylamino)methyl]phenyl}amino)-8-(2-furyl)-6-(2-methylphenyl)pyrimido[4,5-d]pyridazin-5(6H)-one], the Ki came to 5 nM.
As for `CN1Cc2cc(Nc3ncc4c(=O)n(-c5c(Cl)cccc5Cl)nc(-c5nccn5C)c4n3)ccc2C2(CC2)C1` [Example 357, 6-(2,6-dichlorophenyl)-2-[(2′-methyl-2′,3′-dihydro-1′H-spiro[cyclopropane-1,4′-isoquinolin]-7′-yl)amino]-8-(1-methyl-1H-imidazol-2-yl)pyrimido[4,5-d]pyridazin-5(6H)-one], the affinity corresponds to a Ki of 0.87 nM.
In the case of `CN(C)C1Cc2ccc(Nc3ncc4c(=O)n(-c5c(Cl)cccc5Cl)nc(C(F)F)c4n3)cc2C1` (stereo not drawn) [Example 408, 6-(2,6-dichlorophenyl)-8-(difluoromethyl)-2-{[2-(dimethylamino)-2,3-dihydro-1H-inden-5-yl]amino}pyrimido[4,5-d]pyridazin-5(6H)-one], the inhibitory constant (Ki) turned out to be 0.41 nM.
The molecule `CN1CCN(c2ccc(Nc3ncc4c(=O)n(-c5c(Cl)cccc5Cl)nc(-c5cncs5)c4n3)cc2)CC1` [Example 307, 6-(2,6-dichlorophenyl)-2-{[4-(4-methylpiperazin-1-yl)phenyl]amino}-8-(1,3-thiazol-5-yl)pyrimido[4,5-d]pyridazin-5(6H)-one] came in with a Ki of 1.4 nM.
Consider `Cc1nn(-c2c(Cl)cccc2Cl)c(=O)c2cnc(Nc3cccc(N4CCN(C5COC5)CC4)c3)nc12` [Example 512, 6-(2,6-dichlorophenyl)-8-methyl-2-({3-[4-(oxetan-3-yl)piperazin-1-yl]phenyl}amino)pyrimido[4,5-d]pyridazin-5(6H)-one], for which the Ki was found to be 1.4 nM.
As for `CN1Cc2cc(Nc3ncc4c(=O)n(-c5c(Cl)cccc5Cl)nc(-c5ccncc5)c4n3)ccc2C(C)(C)C1` [Example 256, 6-(2,6-dichlorophenyl)-8-(pyridin-4-yl)-2-[(2,4,4-trimethyl-1,2,3,4-tetrahydroisoquinolin-7-yl)amino]pyrimido[4,5-d]pyridazin-5(6H)-one], the Ki was determined as 0.3 nM.
Molecule `Cn1cnc(-c2nn(-c3ncccc3Cl)c(=O)c3cnc(Nc4ccc(N5CCNCC5)cc4)nc23)c1` [Example 350, 6-(3-chloropyridin-2-yl)-8-(1-methyl-1H-imidazol-4-yl)-2-{[4-(piperazin-1-yl)phenyl]amino}pyrimido[4,5-d]pyridazin-5(6H)-one] yielded a Ki of 1.8 nM.
Consider `O=C1CCCN1c1ccc(Nc2ncc3c(=O)n(-c4ccccc4Cl)nc(-c4ccccc4)c3n2)cc1` [Example 168, 6-(2-chlorophenyl)-2-{[4-(2-oxopyrrolidin-1-yl)phenyl]amino}-8-phenylpyrimido[4,5-d]pyridazin-5(6H)-one], for which the Ki is 2 nM.
The molecule `CCc1nn(-c2c(Cl)cccc2Cl)c(=O)c2cnc(Nc3ccc4c(c3)C(C)(C)N(C)CC4)nc12` [Example 461, 6-(2,6-dichlorophenyl)-8-ethyl-2-[(1,1,2-trimethyl-1,2,3,4-tetrahydroisoquinolin-7-yl)amino]pyrimido[4,5-d]pyridazin-5(6H)-one] gave a Ki of 0.68 nM.
In the case of `Cc1cc(Nc2ncc3c(=O)n(-c4c(Cl)cccc4Cl)nc(-c4cnn(C)c4)c3n2)ccc1N1CCCN(C)CC1` [Example 150, 6-(2,6-dichlorophenyl)-2-{[3-methyl-4-(4-methyl-1,4-diazepan-1-yl)phenyl]amino}-8-(1-methyl-1H-pyrazol-4-yl)pyrimido[4,5-d]pyridazin-5(6H)-one], the Ki turned out to be 0.1 nM.
The molecule `C=CCn1nc(-c2ccccc2)c2nc(Nc3ccc4c(c3)CN(C)CC4)ncc2c1=O` [Example 230, 2-[(2-methyl-1,2,3,4-tetrahydroisoquinolin-7-yl)amino]-8-phenyl-6-(prop-2-en-1-yl)pyrimido[4,5-d]pyridazin-5(6H)-one] returned a Ki of 5 nM.

The same assay, now with this note: read-out: Wee-1 inhibition Ki.
“6-(2-chlorophenyl)-2-{[4-(4-methylpiperazin-1-yl)phenyl]amino}-8-(1-methyl-1H-pyrazol-4-yl)pyrimido[4,5-d]pyridazin-5(6H)-one [Example 86]”: the Ki turned out to be 1 nM.
Turning to “3-{[6-(2,6-dichlorophenyl)-8-methyl-5-oxo-5,6-dihydropyrimido[4,5-d]pyridazin-2-yl]amino}benzoic acid [Example 521]”, the inhibition constant Ki worked out at 97 nM.

In general, Ki refers to a dissociation constant, usually derived from enzyme kinetics or from competition with a known ligand.

(Values after patent US8796289B2 (AbbVie Inc., priority 2011, dated 2014).)
